Patent US12528802B2, “Heterocyclic compound” (Takeda Pharmaceutical Company Limited, priority 2019, dated 2026)

target: T1, glucosylceramide synthase (Homo sapiens, UniProt Q16739); assay: Glucosylceramide synthase (GCS) enzyme assay, microsome fraction, C8 glucosylceramide quantified by Rapidfire MS/MS; format: biochemical; conditions: test compound 10 μM; 1.7 μM UDP-glucose, 3 μM C8 ceramide; room temperature 60 min; read-out: GCS enzyme inhibitory rate at 10 μM (%) (% of control)
T1 construct: made in house; host or cells: Expi293F cells (transient expression, pcDNA3.3-TOPO vector); microsome fraction used as enzyme source
T1 sequence (Q16739 1-394): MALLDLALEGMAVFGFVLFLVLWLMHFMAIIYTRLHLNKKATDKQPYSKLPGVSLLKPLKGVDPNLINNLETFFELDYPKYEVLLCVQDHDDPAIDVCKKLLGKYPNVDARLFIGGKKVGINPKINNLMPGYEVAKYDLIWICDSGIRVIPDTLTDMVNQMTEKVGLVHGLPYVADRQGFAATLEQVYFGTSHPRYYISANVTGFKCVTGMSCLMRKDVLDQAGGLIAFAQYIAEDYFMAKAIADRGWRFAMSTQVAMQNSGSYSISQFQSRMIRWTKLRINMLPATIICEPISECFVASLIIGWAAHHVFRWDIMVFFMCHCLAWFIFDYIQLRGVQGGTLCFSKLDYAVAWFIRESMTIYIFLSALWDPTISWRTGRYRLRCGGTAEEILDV
Method in brief: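 Test compound, 10 μM final, was run against human GCS from transfected Expi293F microsome fractions, using substrate solution of 6 μM C8 ceramide (in DOPC liposomes) plus 3.4 μM UDP-glucose, pH 7.5 Tris buffer, 60 min, room temperature. Product C8 glucosylceramide measured by Rapidfire MS/MS against an internal standard, % inhibition referenced to no-enzyme and DMSO wells.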

Compound	inhibition at 10 µM
O=C1c2ccnc(-c3ccc(F)cc3OC(F)F)c2CN1c1ccc(OC(F)F)cn1 [Example 53, 4-[2-(difluoromethoxy)-4-fluorophenyl]-2-[5-(difluoromethoxy)pyridin-2-yl]-2,3-dihydro-1H-pyrrolo[3,4-c]pyridin-1-one]	67%
O=C1c2ccnc(-c3ccccc3OCC(F)(F)F)c2CN1c1ccc(OC(F)F)cn1 [Example 54, 2-[5-(difluoromethoxy)pyridin-2-yl]-4-[2-(2,2,2-trifluoroethoxy)phenyl]-2,3-dihydro-1H-pyrrolo[3,4-c]pyridin-1-one]	100%
O=C1c2ccnc(-c3ccc(F)cc3OCC(F)(F)F)c2CN1c1ccc(OC(F)F)cn1 [Example 55, 2-[5-(difluoromethoxy)pyridin-2-yl]-4-[4-fluoro-2-(2,2,2-trifluoroethoxy)phenyl]-2,3-dihydro-1H-pyrrolo[3,4-c]pyridin-1-one]	98%
O=C1c2ccnc(-c3ccccc3OCC(F)(F)F)c2CN1c1ccc(OC(F)(F)F)cn1 [Example 56, 4-[2-(2,2,2-trifluoroethoxy)phenyl]-2-[5-(trifluoromethoxy)pyridin-2-yl]-2,3-dihydro-1H-pyrrolo[3,4-c]pyridin-1-one]	100%
O=C1c2ccnc(-c3ccc(F)cc3OC(F)F)c2CN1c1ccc(OC(F)(F)F)cn1 [Example 57, 4-[2-(difluoromethoxy)-4-fluorophenyl]-2-[5-(trifluoromethoxy)pyridin-2-yl]-2,3-dihydro-1H-pyrrolo[3,4-c]pyridin-1-one]	74%
O=C1c2ccnc(-c3ccc(F)cc3OCC(F)(F)F)c2CN1c1ccc(OC(F)(F)F)cn1 [Example 58, 4-[4-fluoro-2-(2,2,2-trifluoroethoxy)phenyl]-2-[5-(trifluoromethoxy)pyridin-2-yl]-2,3-dihydro-1H-pyrrolo[3,4-c]pyridin-1-one]	96%
O=C1c2ccnc(-c3ccc(F)cc3OCC(F)(F)F)c2CN1c1ccc(F)cn1 [Example 59, 2-(5-fluoropyridin-2-yl)-4-[4-fluoro-2-(2,2,2-trifluoroethoxy)phenyl]-2,3-dihydro-1H-pyrrolo[3,4-c]pyridin-1-one]	88%
O=C1c2ccnc(-c3ccccc3OCC(F)(F)F)c2CN1c1ccc(C(F)(F)F)cn1 [Example 60, 4-[2-(2,2,2-trifluoroethoxy)phenyl]-2-[5-(trifluoromethyl)pyridin-2-yl]-2,3-dihydro-1H-pyrrolo[3,4-c]pyridin-1-one]	99%
O=C1c2ccnc(-c3ccc(F)cc3OCC(F)(F)F)c2CN1c1ccc(C(F)(F)F)cn1 [Example 61, 4-[4-fluoro-2-(2,2,2-trifluoroethoxy)phenyl]-2-[5-(trifluoromethyl)pyridin-2-yl]-2,3-dihydro-1H-pyrrolo[3,4-c]pyridin-1-one]	85%
O=C1c2ccnc(-c3ccccc3OC(F)F)c2CN1c1ccc(OC(F)(F)F)cn1 [Example 62, 4-[2-(difluoromethoxy)phenyl]-2-[5-(trifluoromethoxy)pyridin-2-yl]-2,3-dihydro-1H-pyrrolo[3,4-c]pyridin-1-one]	95%
O=C1c2ccnc(-c3ccccc3OC(F)F)c2CN1c1ccc(F)cn1 [Example 63, 4-[2-(difluoromethoxy)phenyl]-2-(5-fluoropyridin-2-yl)-2,3-dihydro-1H-pyrrolo[3,4-c]pyridin-1-one]	96%
O=C1c2ccnc(-c3ccccc3OC(F)F)c2CN1c1ccc(OC(F)F)cn1 [Example 64, 4-[2-(difluoromethoxy)phenyl]-2-[5-(difluoromethoxy)pyridin-2-yl]-2,3-dihydro-1H-pyrrolo[3,4-c]pyridin-1-one]	96%
O=C1c2ccnc(-c3ccc(F)cc3OCC(F)(F)F)c2CN1c1ccc(OC(F)F)nc1 [Example 65, 2-[6-(difluoromethoxy)pyridin-3-yl]-4-[4-fluoro-2-(2,2,2-trifluoroethoxy)phenyl]-2,3-dihydro-1H-pyrrolo[3,4-c]pyridin-1-one]	95%
O=C1c2ccnc(-c3ccccc3OC(F)F)c2CN1c1ccc(C(F)(F)F)cn1 [Example 67, 4-[2-(difluoromethoxy)phenyl]-2-[5-(trifluoromethyl)pyridin-2-yl]-2,3-dihydro-1H-pyrrolo[3,4-c]pyridin-1-one]	95%
N#Cc1ccc(N2Cc3c(ccnc3-c3ccccc3OCC(F)(F)F)C2=O)cc1 [Example 68, 4-{1-oxo-4-[2-(2,2,2-trifluoroethoxy)phenyl]-1,3-dihydro-2H-pyrrolo[3,4-c]pyridin-2-yl}benzonitrile]	87%
N#Cc1ccc(N2Cc3c(ccnc3-c3ccc(F)cc3OC(F)F)C2=O)nc1 [Example 70, 6-{4-[2-(difluoromethoxy)-4-fluorophenyl]-1-oxo-1,3-dihydro-2H-pyrrolo[3,4-c]pyridin-2-yl}pyridine-3-carbonitrile]	53%
N#Cc1ccc(N2Cc3c(ccnc3-c3ccc(F)cc3OCC(F)(F)F)C2=O)nc1 [Example 71, 6-{4-[4-fluoro-2-(2,2,2-trifluoroethoxy)phenyl]-1-oxo-1,3-dihydro-2H-pyrrolo[3,4-c]pyridin-2-yl}pyridine-3-carbonitrile]	99%
N#Cc1ccc(N2Cc3c(ccnc3-c3ccccc3OCC(F)(F)F)C2=O)nc1 [Example 72, 6-{1-oxo-4-[2-(2,2,2-trifluoroethoxy)phenyl]-1,3-dihydro-2H-pyrrolo[3,4-c]pyridin-2-yl}pyridine-3-carbonitrile]	100%
N#Cc1ccc(N2Cc3c(ccnc3-c3ccccc3OC(F)F)C2=O)nc1 [Example 73, 6-{4-[2-(difluoromethoxy)phenyl]-1-oxo-1,3-dihydro-2H-pyrrolo[3,4-c]pyridin-2-yl}pyridine-3-carbonitrile]	90%
O=C1c2ccnc(-c3ccccc3OC(F)F)c2CN1c1ccc(OC(F)F)nc1 [Example 74, 4-[2-(difluoromethoxy)phenyl]-2-[6-(difluoromethoxy)pyridin-3-yl]-2,3-dihydro-1H-pyrrolo[3,4-c]pyridin-1-one]	91%
O=C1c2ccnc(-c3ccccc3OCC(F)(F)F)c2CN1c1ccc(OC(F)F)nc1 [Example 75, 2-[6-(difluoromethoxy)pyridin-3-yl]-4-[2-(2,2,2-trifluoroethoxy)phenyl]-2,3-dihydro-1H-pyrrolo[3,4-c]pyridin-1-one]	100%
O=C1c2ccnc(-c3ccncc3OCC(F)(F)F)c2CN1c1ccc(F)cc1 [Example 77, 2-(4-fluorophenyl)-4-[3-(2,2,2-trifluoroethoxy)pyridin-4-yl]-2,3-dihydro-1H-pyrrolo[3,4-c]pyridin-1-one]	91%
O=C(c1ccc(-c2nccc3c2CN(c2ccc(F)cc2)C3=O)c(OC(F)F)c1)N1CCC1 [Example 78, 4-[4-(azetidine-1-carbonyl)-2-(difluoromethoxy)phenyl]-2-(4-fluorophenyl)-2,3-dihydro-1H-pyrrolo[3,4-c]pyridin-1-one]	79%
O=C1c2cnn(-c3ccc(F)cc3OCC(F)(F)F)c2CN1c1ccc(F)cc1 [Example 79, 5-(4-fluorophenyl)-1-[4-fluoro-2-(2,2,2-trifluoroethoxy)phenyl]-5,6-dihydropyrrolo[3,4-c]pyrazol-4(1H)-one]	75%
